Experimental data: patent publication US8003785B2 (Takeda Pharmaceutical Company Limited, priority 2008, dated 2011)

What follows are compounds tested against T1, PLK1 (Homo sapiens, UniProt P53350) (assay: Biochemical Characterization Assay: HTRF kinase assay, GST-PLK1 phosphorylation of GST-p53). Settings: GST-PLK1, GST-p53 substrate.
T1 construct: Full-length, active GST-PLK1 is purified from Sf9 insect cells; made in house; host or cells: Sf9 insect cells
Experimental: Biochemical Characterization Assay
Full-length, active GST-PLK1 is purified from Sf9 insect cells, and full-length GST-p53 is purified from E. coli. Anti-phospho p53 antibody is from Cell Signaling Technology. Europium-conjugated anti-rabbit antibody is from PerkinElmer Life and Analytical Sciences. APC-conjugated anti-GST antibody is from Prozyme.
Six microliters of GST-PLK1 (3 ug/mL) in Kinase Assay Buffer are then added and the solution incubated at 37° C. for 35 minutes. Six microliters of solution containing 43 mM EDTA to stop the reaction and a 1:600 dilution of anti-phospho-p53 antibody in 20 mM HEPES pH 7, 50 mM NaCl, and 0.5 mg/mL BSA (Antibody Binding Buffer) are added and the solution incubated at 37° C. for 30 minutes. […] The HTRF signal is read on an Envision reader from PerkinElmer Life and Analytical Sciences.

T1 sequence (P53350 whole entry): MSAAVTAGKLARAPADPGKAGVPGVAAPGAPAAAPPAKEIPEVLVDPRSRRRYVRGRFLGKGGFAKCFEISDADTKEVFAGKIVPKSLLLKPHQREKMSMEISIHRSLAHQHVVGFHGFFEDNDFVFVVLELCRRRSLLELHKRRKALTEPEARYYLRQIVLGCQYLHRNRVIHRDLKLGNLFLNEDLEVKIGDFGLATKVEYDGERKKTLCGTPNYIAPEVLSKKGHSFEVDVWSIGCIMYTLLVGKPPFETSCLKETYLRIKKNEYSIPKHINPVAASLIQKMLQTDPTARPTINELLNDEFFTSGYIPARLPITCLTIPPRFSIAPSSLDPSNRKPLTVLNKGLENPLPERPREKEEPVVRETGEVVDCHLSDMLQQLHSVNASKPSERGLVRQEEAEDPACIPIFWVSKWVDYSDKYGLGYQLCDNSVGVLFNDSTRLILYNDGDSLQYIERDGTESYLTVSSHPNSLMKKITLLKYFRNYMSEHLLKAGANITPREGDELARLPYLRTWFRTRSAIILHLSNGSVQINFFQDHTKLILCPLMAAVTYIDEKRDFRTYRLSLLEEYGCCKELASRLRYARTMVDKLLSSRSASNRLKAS

Structure (SMILES) | IC50
COc1cc(C(=O)NCCCN(C)C)c(F)cc1Nc1ncc2c(n1)N(C1CCCC1)CC(F)(F)C(=O)N2C [Example I-172, 4-(9-cyclopentyl-7,7-difluoro-5-methyl-6-oxo-6,7,8,9-tetra-hydro-5H-pyrimido[4,5-b][1,4]diazepin-2-ylamino)-N-(3-dimethylamino-propyl)-2-fluoro-5-methoxy-benzamide] | 0.001 to 0.05 µM
CCN1CCC(NC(=O)c2ccc(Nc3ncc4c(n3)N(C3CCCC3)CC(F)(F)C(=O)N4C)c(F)c2F)CC1 [Example I-244] | 0.001 to 0.05 µM
COc1cc(C(=O)NC2CCOCC2)ccc1Nc1ncc2c(n1)N(CCCc1ccccc1)CC(F)(F)C(=O)N2C [Example I-286, 4-[7,7-difluoro-5-methyl-6-oxo-9-(3-phenyl-propyl)-6,7,8,9-tetrahydro-5H-pyrimido[4,5-b][1,4]diazepin-2-ylamino]-3-methoxy-N-(tetrahydro-pyran-4-yl)-benzamide] | 0.051 to 0.5 µM
CCc1cc(C(=O)NC2CCOCC2)ccc1Nc1ncc2c(n1)N(C1CCCC1)CC(F)(F)C(=O)N2C [Example I-197, 4-(9-cyclopentyl-7,7-difluoro-5-methyl-6-oxo-6,7,8,9-tetrahydro-5H-pyrimido[4,5-b][1,4]diazepin-2-ylamino)-3-ethyl-N-(tetrahydro-pyran-4-yl)-benzamide] | 0.001 to 0.05 µM
COc1cc(C(=O)NC2CCN(C)CC2)ccc1Nc1ncc2c(n1)N(C(C)C)CC(F)(F)C(=O)N2C [Example I-293, 4-(7,7-difluoro-9-isopropyl-5-methyl-6-oxo-6,7,8,9-tetrahydro-5H-pyrimido[4,5-b][1,4]diazepin-2-ylamino)-3-methoxy-N-(1-methyl-piperidin-4-yl)-benzamide] | 0.001 to 0.05 µM
COc1cc(C(=O)N[C@H]2CC[C@@H](N3CCN(CC4CC4)CC3)CC2)ccc1Nc1ncc2c(n1)N(C(C)C)CC(F)(F)C(=O)N2C [Example I-301, N-[cis-4-(4-cyclopropylmethyl-piperazin-1-yl)-cyclohexyl]-4-(7,7-difluoro-9-isopropyl-5-methyl-6-oxo-6,7,8,9-tetrahydro-5H-pyrimido[4,5-b][1,4]diazepin-2-ylamino)-3-methoxy-benzamide] | 0.001 to 0.05 µM
COc1cc(C(=O)NC2CCNCC2)ccc1Nc1ncc2c(n1)N(C1CCCCC1)CC(F)(F)C(=O)N2C [Example I-251, 4-(9-cyclohexyl-7,7-difluoro-5-methyl-6-oxo-6,7,8,9-tetrahydro-5H-pyrimido[4,5-b][1,4]diazepin-2-ylamino)-3-methoxy-N-piperidin-4-yl-benzamide] | 0.001 to 0.05 µM
CCOc1cc(C(=O)NC)ccc1Nc1ncc2c(n1)N(C1CCCC1)CC(F)(F)C(=O)N2C [Example I-220, 4-(9-cyclopentyl-7,7-difluoro-5-methyl-6-oxo-6,7,8,9-tetrahydro-5H-pyrimido[4,5-b][1,4]diazepin-2-ylamino)-3-ethoxy-N-methyl-benzamide] | 0.001 to 0.05 µM
COc1cc(C(=O)NC2CCN(CCO)CC2)ccc1Nc1ncc2c(n1)N(C1CCCCC1)CC(F)(F)C(=O)N2C [Example I-267, 4-(9-cyclohexyl-7,7-difluoro-5-methyl-6-oxo-6,7,8,9-tetrahydro-5H-pyrimido[4,5-b][1,4]diazepin-2-ylamino)-N-[1-(2-hydroxy-ethyl)-piperidin-4-yl]-3-methoxy-benzamide] | 0.001 to 0.05 µM
CNC(=O)c1ccc(Nc2ncc3c(n2)N(CCCc2ccccc2)CC(F)(F)C(=O)N3C)c(OC)c1 [Example I-284, 4-[7,7-difluoro-5-methyl-6-oxo-9-(3-phenyl-propyl)-6,7,8,9-tetrahydro-5H-pyrimido[4,5-b][1,4]diazepin-2-ylamino]-3-methoxy-N-methyl-benzamide] | 0.051 to 0.5 µM

Same assay, conditions: GST-PLK1, GST-p53 substrate, ATP

Structure (SMILES) | IC50
COc1cc(C(=O)N[C@H]2CC[C@H](O)CC2)ccc1Nc1ncc2c(n1)N(C1CCCC1)CC(F)(F)C(=O)N2C [Example I-69, trans-4-(9-cyclopentyl-7,7-difluoro-5-methyl-6-oxo-6,7,8,9-tetrahydro-5H-pyrimido[4,5-b][1,4]diazepin-2-ylamino)-N-(4-hydroxy-cyclohexyl)-3-methoxy-benzamide] | 0.001 to 0.05 µM
CCN1CCC(NC(=O)c2ccc(Nc3ncc4c(n3)N(C3CCC3)CC(F)(F)C(=O)N4C)c(OC)c2)CC1 [Example I-10, 4-(9-cyclobutyl-7,7-difluoro-5-methyl-6-oxo-6,7,8,9-tetrahydro-5H-pyrimido[4,5-b][1,4]diazepin-2-ylamino)-N-(1-ethyl-piperidin-4-yl)-3-methoxy-benzamide] | 0.001 to 0.05 µM
COc1cc(C(=O)NN2CCCCC2)ccc1Nc1ncc2c(n1)N(C1CCCC1)CC(F)(F)C(=O)N2C [Example I-115, 4-(9-cyclopentyl-7,7-difluoro-5-methyl-6-oxo-6,7,8,9-tetrahydro-5H-pyrimido[4,5-b][1,4]diazepin-2-ylamino)-3-methoxy-N-piperidin-1-yl-benzamide] | 0.001 to 0.05 µM
CN(C)CCNC(=O)c1ccc(Nc2ncc3c(n2)N(C2CCC2)CC(F)(F)C(=O)N3C)cc1 [Example I-18, 4-(9-cyclobutyl-7,7-difluoro-5-methyl-6-oxo-6,7,8,9-tetrahydro-5H-pyrimido[4,5-b][1,4]diazepin-2-ylamino)-N-(2-dimethylamino-ethyl)-benzamide] | 0.001 to 0.05 µM
COc1cc(C(=O)NCCc2c[nH]c3ccccc23)ccc1Nc1ncc2c(n1)N(C1CCCC1)CC(F)(F)C(=O)N2C [Example I-51, 4-(9-cyclopentyl-7,7-difluoro-5-methyl-6-oxo-6,7,8,9-tetrahydro-5H-pyrimido[4,5-b][1,4]diazepin-2-ylamino)-N-[2-(1H-indol-3-yl)-ethyl]-3-methoxy-benzamide] | 0.051 to 0.5 µM
COc1cc(C(=O)NC2CCN(C)CC2)ccc1Nc1ncc2c(n1)N(C1CCC1)CC(F)(F)C(=O)N2C [Example I-4, 4-(9-cyclobutyl-7,7-difluoro-5-methyl-6-oxo-6,7,8,9-tetrahydro-5H-pyrimido[4,5-b][1,4]diazepin-2-ylamino)-3-methoxy-N-(1-methyl-piperidin-4-yl)-benzamide] | 0.001 to 0.05 µM
CN1C(=O)C(F)(F)CN(C2CCC2)c2nc(Nc3ccc(C(=O)O)cc3)ncc21 [Example I-11, 4-(9-cyclobutyl-7,7-difluoro-5-methyl-6-oxo-6,7,8,9-tetrahydro-5H-pyrimido[4,5-b][1,4]diazepin-2-ylamino)-benzoic acid] | 0.051 to 0.5 µM
CNC(=O)c1ccc(Nc2ncc3c(n2)N(C2CCC2)CC(F)(F)C(=O)N3C)c(OC)c1 [Example I-3, 4-(9-cyclobutyl-7,7-difluoro-5-methyl-6-oxo-6,7,8,9-tetrahydro-5H-pyrimido[4,5-b][1,4]diazepin-2-ylamino)-3-methoxy-N-methyl-benzamide] | 0.001 to 0.05 µM
COc1cc(C(=O)N[C@@H]2CCNC[C@@H]2OC)ccc1Nc1ncc2c(n1)N(C1CCCC1)CC(F)(F)C(=O)N2C (racemic) [Example I-57, rac-(3S,4R)-4-(9-cyclopentyl-7,7-difluoro-5-methyl-6-oxo-6,7,8,9-tetrahydro-5H-pyrimido[4,5-b][1,4]diazepin-2-ylamino)-3-methoxy-N-(3-methoxy-piperidin-4-yl)-benzamide] | 0.001 to 0.05 µM
COc1cc(C(=O)N[C@@H]2CCN(Cc3ccccc3)C2)ccc1Nc1ncc2c(n1)N(C1CCCC1)CC(F)(F)C(=O)N2C [Example I-101, N—((R)-1-benzyl-pyrrolidin-3-yl)-4-(9-cyclopentyl-7,7-difluoro-5-methyl-6-oxo-6,7,8,9-tetrahydro-5H-pyrimido[4,5-b][1,4]diazepin-2-ylamino)-3-methoxy-benzamide] | 0.001 to 0.05 µM
COc1cc(C(=O)N[C@H]2CCNC2)ccc1Nc1ncc2c(n1)N(C1CCCC1)CC(F)(F)C(=O)N2C [Example I-83, S-4-(9-cyclopentyl-7,7-difluoro-5-methyl-6-oxo-6,7,8,9-tetrahydro-5H-pyrimido[4,5-b][1,4]diazepin-2-ylamino)-3-methoxy-N—(S)-pyrrolidin-3-yl-benzamide] | 0.001 to 0.05 µM
COc1cc(C(=O)N2CCOCC2)ccc1Nc1ncc2c(n1)N(C1CCCC1)CC(F)(F)C(=O)N2C [Example I-127, 9-cyclopentyl-7,7-difluoro-2-[2-methoxy-4-(morpholine-4-carbonyl)-phenylamino]-5-methyl-5,7,8,9-tetrahydro-pyrimido[4,5-b][1,4]diazepin-6-one] | 0.001 to 0.05 µM
COc1cc(C(=O)NCCCN2CCCCC2)ccc1Nc1ncc2c(n1)N(C1CCCC1)CC(F)(F)C(=O)N2C [Example I-84, 4-(9-cyclopentyl-7,7-difluoro-5-methyl-6-oxo-6,7,8,9-tetrahydro-5H-pyrimido[4,5-b][1,4]diazepin-2-ylamino)-3-methoxy-N-(3-piperidin-1-yl-propyl)-benzamide] | 0.001 to 0.05 µM
COc1cc(C(=O)O)ccc1Nc1ncc2c(n1)N(C1CCC1)CC(F)(F)C(=O)N2C [Example I-1, 4-(9-cyclobutyl-7,7-difluoro-5-methyl-6-oxo-6,7,8,9-tetrahydro-5H-pyrimido[4,5-b][1,4]diazepin-2-ylamino)-3-methoxy-benzoic acid] | 0.001 to 0.05 µM
COc1cc(C(=O)NCCCN(C)C)ccc1Nc1ncc2c(n1)N(C1CCC1)CC(F)(F)C(=O)N2C [Example I-9, 4-(9-cyclobutyl-7,7-difluoro-5-methyl-6-oxo-6,7,8,9-tetrahydro-5H-pyrimido[4,5-b][1,4]diazepin-2-ylamino)-N-(3-dimethylamino-propyl)-3-methoxy-benzamide] | 0.001 to 0.05 µM
